ChEMBL document CHEMBL1146495, “Iridoids as allelochemicals and DNA polymerase inhibitors” (J Nat Prod, 2004)
Calls of active or inactive are those of the source. The rule behind the calls is not given here.

Key:
[1] = molecular target: DNA polymerase I, thermostable (Thermus aquaticus, UniProt P19821); assay: Inhibition of Thermus aquaticus-DNA polymerase by PCR analysis
[2] = tested on: Tribolium castaneum; assay: Insecticidal activity against Tribolium castaneum fifth instar larvae assessed as mortality at 60 ug/uL, treated topically; assay type: functional
[3] = tested on: Tribolium castaneum; assay: Antifeedant activity against Tribolium castaneum assessed as feeding deterrence index at 200 ug/disk after 5 days by flour disk assay; assay type: functional, organism-based
[4] = tested on: Tribolium castaneum; assay: Antifeedant activity against Tribolium castaneum assessed as efficiency of conversion of ingested food at 200 ug/disk after 5 days by flour disk assay; assay type: functional, Instar larval stage
[5] = tested on: Tribolium castaneum; assay: Antifeedant activity against Tribolium castaneum assessed as relative consumption rate at 200 ug/disk after 5 days by flour disk assay; assay type: functional
[6] = tested on: Tribolium castaneum; assay: Antifeedant activity against Tribolium castaneum assessed as relative growth rate at 200 ug/disk after 5 days by flour disk assay; assay type: functional
[7] = tested on: Tribolium castaneum; assay: Insecticidal activity against Tribolium castaneum fifth instar larvae assessed as pupal stage duration at 60 ug/uL, treated topically; assay type: functional
[8] = molecular target: DNA polymerase I, thermostable (Thermus aquaticus) (UniProt P19821); assay: Inhibition of Thermus aquaticus-DNA polymerase at 500 uM by PCR analysis
Sequence of DNA polymerase I, thermostable (Thermus aquaticus) (P19821 whole entry): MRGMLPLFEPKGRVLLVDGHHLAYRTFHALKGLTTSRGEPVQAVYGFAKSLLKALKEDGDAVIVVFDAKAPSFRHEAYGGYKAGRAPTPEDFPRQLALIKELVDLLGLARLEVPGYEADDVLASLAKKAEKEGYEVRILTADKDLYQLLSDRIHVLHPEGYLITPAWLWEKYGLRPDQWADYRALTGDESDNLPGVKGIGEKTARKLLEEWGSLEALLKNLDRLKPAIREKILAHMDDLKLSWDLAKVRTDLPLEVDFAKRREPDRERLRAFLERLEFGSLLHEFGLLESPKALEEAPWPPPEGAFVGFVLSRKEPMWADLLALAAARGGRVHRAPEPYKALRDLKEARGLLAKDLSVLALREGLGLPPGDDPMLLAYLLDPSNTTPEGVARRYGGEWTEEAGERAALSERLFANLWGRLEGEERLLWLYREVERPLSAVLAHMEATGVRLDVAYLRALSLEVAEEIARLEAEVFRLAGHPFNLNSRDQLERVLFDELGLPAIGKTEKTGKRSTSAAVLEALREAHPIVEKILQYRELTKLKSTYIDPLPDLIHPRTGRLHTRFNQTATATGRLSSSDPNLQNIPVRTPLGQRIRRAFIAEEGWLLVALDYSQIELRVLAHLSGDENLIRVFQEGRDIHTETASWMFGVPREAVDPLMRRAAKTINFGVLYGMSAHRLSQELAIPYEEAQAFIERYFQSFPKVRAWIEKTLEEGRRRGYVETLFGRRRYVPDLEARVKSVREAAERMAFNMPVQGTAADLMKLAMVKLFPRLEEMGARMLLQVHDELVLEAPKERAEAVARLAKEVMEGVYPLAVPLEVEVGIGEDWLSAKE

Sequence of DNA polymerase I, thermostable (P19821 whole entry): as above

Structure (SMILES) | IC50 [1] [µM] | Activity [2] [%] | Activity [3] | Activity [4] [%] | Activity [5] [mg/mg/day] | Activity [6] [mg/mg/day] | Activity [7] [days] | Activity [8]
CC(=O)O[C@@]1(C)C[C@@H](O)[C@]2(O)C=CO[C@@H](O[C@@H]3O[C@H](CO)[C@@H](O)[C@H](O)[C@H]3O)[C@@H]21 | 214 | 56.6 | inactive | -8.908 | 0.058 | -0.004 | 11.3 | 
CCCCCCCC/C=C\CCCCCCCCOC[C@H]1O[C@@H](O[C@@H]2OC=C[C@H]3[C@H](O)[C@@H]4O[C@]4(COCCCCCCCC/C=C\CCCCCCCC)[C@@H]23)[C@H](O)[C@@H](O)[C@@H]1O |  |  |  |  |  |  |  | inactive
OC[C@H]1O[C@@H](O[C@@H]2OCC[C@H]3[C@H](O)[C@@H]4O[C@]4(CO)[C@@H]23)[C@H](O)[C@@H](O)[C@@H]1O |  |  |  |  |  |  |  | inactive
C[C@]1(O)C[C@@H](O)[C@]2(O)C=CO[C@@H](O[C@@H]3O[C@H](CO)[C@@H](O)[C@H](O)[C@H]3O)[C@@H]21 [HARPAGIDE] | 417 |  |  |  |  |  |  | 
C[C@]1(O)C[C@@H](O)[C@]2(O)C=CO[C@@H](O[C@H]3O[C@H](CO)[C@@H](O)[C@H](O)[C@H]3O)[C@@H]21 [HARPAGIDE] |  | 60 | inactive | -30.729 | 0.019 | -0.003 | 12.1 | 
CC(=O)O[C@@H]1[C@@H](OC(C)=O)[C@H](O[C@@H]2OC=C[C@H]3[C@H](OC(C)=O)[C@@H]4O[C@]4(CO[Si](c4ccccc4)(c4ccccc4)C(C)(C)C)[C@@H]23)O[C@H](CO[Si](c2ccccc2)(c2ccccc2)C(C)(C)C)[C@H]1OC(C)=O |  |  |  |  |  |  |  | inactive
CC(=O)OC[C@H]1O[C@@H](O[C@@H]2OC=C[C@H]3[C@H](OC(C)=O)[C@@H]4O[C@]4(COC(C)=O)[C@@H]23)[C@H](OC(C)=O)[C@@H](OC(C)=O)[C@@H]1OC(C)=O |  |  |  |  |  |  |  | inactive
OC[C@H]1O[C@@H](O[C@@H]2OC=C[C@H]3[C@H](O)[C@@H]4O[C@]4(CO)[C@@H]23)[C@H](O)[C@@H](O)[C@@H]1O [CATALPOL] | 47.8 | 73.3 | inactive | -66.101 | 0.017 | -0.01 | 8.2 | 
